Where two headings read alike, the source gives them in different places.
Legend:
[1] = target: T1, 1,3-dicarbonyl-dioxygenase (Acinetobacter johnsonii, UniProt Q8GNT2); test: Determination of enzyme-activity and stability versus pH and additives; format: physicochemical
Protocol: Activity measurements were performed with the oxygen-electrode, with KH2PO4-buffers adjusted to various pH-values [5.0-9.0]. For stability measurements, the enzyme was diluted ten-fold and incubated at various pH-values [5.0-9.0]. The activity was measured periodically with the UV-activity-assay.

[2] = target: T1, 1,3-dicarbonyl-dioxygenase; test: Substrate spectrum / apparent kinetic constants of purified 1,3-dicarbonyl-dioxygenase (UV assay and oxygen electrode); details: for KO2: polarographic, estimated from rate of oxygen depletion, substrate 0.5-1 mM; for O2/Substrate: oxygen consumed per substrate, oxygen electrode
Protocol: (§1) The reaction rates were determined by using the microcomputer regression program provided with the spectrophotometer (Winspec) based on the first ten absorbance measurements made at 5-s intervals.
Substrates were dissolved at a concentration of 0.001-1 mM in KH2PO4-buffer, 50 mM, pH 7.5 using a 10 mM stock solution. Duplicate absorption-measurements of 20 different dilutions were performed at 25° C. The molar absorption coefficients were calculated by linear regression.
(§2) Oxygen consumption during the enzyme reaction was measured with an oxygen-electrode-cell (Digital Oxygen System Model 10, Rank Brothers Ltd., Cambridge, England) as described previously (Beechey, R. B. and Ribbons, D. W. (1971). ‘Methods in Microbiology’.V. 6B. Edited by J. R. Norris and D. W. Ribbons. Academic press, London. ‘Oxygen electrode measurements’ (Chapter II) pp. 29-52.). The reaction mixture contained air-saturated KH2PO4-buffer, 50 mM, pH 7.5 at 25° C. (thermostat). The oxygen-electrode was calibrated by the sodium-sulfite-method. Varying concentrations of substrate (0.01-0.3 mM) were added and the resulting decrease of oxygen was determined.
Assuming the Michaelis-Menten-equation, Vmax and Ks values were calculated by non-linear curve-fit by the program microcal-origin. KO2 was estimated by polarographic methods, adding non limiting amounts of substrate (0.5-1 mM) and graphically determining the oxygen concentration at the point of half of the maximum activity. Ks-values were similarly confirmed by polarographic methods, by stepwise addition of substrate to a final concentration of 20-150 μM.

[3] = target: T1, 1,3-dicarbonyl-dioxygenase; test: Products of various substrates determined by HPLC (cleavage stoichiometry, partially purified enzyme); format: biochemical; details: 25° C., one hour; for Substrate % (remaining): remaining substrate calculated; for Acetate % / Methylglyoxal %: oxygen saturated buffer
Description: The products of the enzyme reaction were identified directly from the reaction mixture by in situ ^1H-NMR-spectroscopy (Pokorny, D., L. Brecker, M. Pogorevc, H. Griengl, W. Steiner, T. Kappe, and D. W. Ribbons. 1999. Proton-Nuclear Magnetic Resonance Analyses of the Substrate Specificity of a β-Ketolase from Pseudomonas putida, Acetopyruvate Hydrolase. J. Bacteriol. 181: 5051-5059.). Therefore a 200 MHz narrow bore magnet (Varian Gemini™ 2000, Varian, Inc., Palo Alto, Calif.) and a 5 mm broadband probe head were used. The NMR tube was rotated at 20 rps. For a lock a D2O vortex capillary was added to avoid ^1H/D exchange reactions. The overwhelming water-signal was suppressed with a presaturation method (Guéron, M., P. Plateau and M. Decorps. 1991. Solvent signal suppression in NMR. Prog. NMR Spectrosc. 23: 135-209. Hore, J. P. 1989. Solvent suppression. p. 64. In N. J. Oppenheimer and J. T. James (eds.), Methods Enzymol. 176. Academic Press, Inc., San Diego.). The following parameters were adjusted for a ^1H-frequency of 200 MHz: presaturation-duration of 1.0 s, ^1H-pulse-angle of 90, an acquisition-time of 2.0 s and a relaxation delay of 1.5 s. 64 Scans were accumulated and after a zero filling to 32 k datapoints the free induction decay was Fourier transformed. The water signal (4.70 ppm) was used as a reference. For standard reaction analytics HPLC-measurements were performed (Hewlett-Packard, column: Aminex-HPX-87H, UV- and RI-detector, eluent Sulfuric acid 0.005 M).
The cleavage-stoichiometry of several non-symmetrical substrates was also investigated, in order to be able to determine the regiospecificity of the enzyme. This was done by conversion of the respective substrate with partially purified enzyme. Methylglyoxal and acetate formed were measured by HPLC. Remaining substrate was calculated.

[4] = target: T2, recombinant 1,3-dicarbonyl-dioxygenase (expressed in E.coli) (Acinetobacter johnsonii, UniProt Q8GNT2); test: Relative activity of recombinant protein at non-limiting substrate concentrations; format: biochemical
T2 construct: made in house; host or cells: E. coli XL1 Blue, plasmid pMS470 (tac promoter, NdeI/HindIII)
T2 sequence (Q8GNT2 whole entry): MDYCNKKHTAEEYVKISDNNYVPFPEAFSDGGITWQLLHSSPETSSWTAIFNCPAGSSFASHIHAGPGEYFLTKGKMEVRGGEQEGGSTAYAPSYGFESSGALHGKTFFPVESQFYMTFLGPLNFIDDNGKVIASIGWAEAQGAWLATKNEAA
Protocol: Expression constructs were expressed in E.coli XL1 Blue (Stratagene, La Jolla, Calif.), which was grown to an OD of 1 at 30° C. on rotatory shakers in erlenmeyer flasks, then induced with IPTG (0.3 mM) and incubated for another 5 hours.
as §1, §2

[5] = target: wild-type 1,3-dicarbonyl-dioxygenase (Acinetobacter johnsonii, UniProt Q8GNT2); test: Relative activity of wild-type enzyme at non-limiting substrate concentrations; format: biochemical
Chain of wild-type 1,3-dicarbonyl-dioxygenase (Q8GNT2 whole entry): as above
Protocol: as §1, §2

[6] = target: T1, 1,3-dicarbonyl-dioxygenase; format: biochemical
[7] = target: T1, 1,3-dicarbonyl-dioxygenase; format: biochemical; remark: listed apart in the source
Protocol: The freshly prepared solutions of the respecitive inhibitors in buffer were added to partially purified enzyme, which then was incubated at room temperature.
The freshly prepared solutions of the respective inhibitors in buffer were added to partially purified enzyme, which then was incubated at room temperature. […] For reactivation, purified enzyme, which had previously been inactivated by incubation with o-phenantroline (1 mM), was incubated with Tris-buffer (20 mM, pH 7.5) containing the respective metal-salts (5 mM).

[8] = apparent, relative to acetylacetone = 1.00, purified wild-type enzyme
[9] = inhibitor 2.5 mM, 2 min incubation, 0.5 mM acetylacetone, pH 7.5
[10] = inhibitor 2.5 mM, 10 min incubation, 0.5 mM acetylacetone, pH 7.5

T1 sequence (Q8GNT2 whole entry): as above

O[C@H](CS)[C@H](O)CS (racemic) [dithiothreitol]
effect of potential stabilizing agent on enzyme stability [1]: did not enhance stability

O=C1CCCC(=O)C1 [1,3-Cyclohexanedione]
Vmaxrel. [2]: 0.00
acceptance as substrate (in words) [2]: not accepted as a substrate

CC(=O)CC(=O)c1ccccc1 [1-Phenyl-1,3-butandion, 1-Phenyl-1,3-butanedione]
Vmaxrel. [2, 8]: 0.15
KO2 ([2]; apparent): 100 ± 15 µM
O2/Substrate [2]: 1.0
Methylglyoxal/Acetate ([3]; substrate 1.6 mM): 9
Substrate % (remaining) ([3]; substrate 1.6 mM): 24%
Acetate % ([3]; substrate 1.6 mM): 8%
Methylglyoxal % ([3]; substrate 1.6 mM): 68%
Vmax clone [4]: 0.08
Vmax wild-type [5]: 0.05

CC(=O)CC(=O)C(=O)O [2,4-Dioxo-pentanoic acid]
Vmaxrel. [2]: 0.00
acceptance as substrate (in words) [2]: not cleaved

CCOC(=O)C(=O)CC(C)=O [2,4-Dioxo-pentanoic-acid-ethyl-ester]
Vmaxrel. [2, 8]: 0.09
KO2 ([2]; apparent): 91 ± 15 µM
O2/Substrate [2]: 1.0
Vmax clone [4]: 0.08
Vmax wild-type [5]: 0.10

CCCCCC(=O)CC(C)=O [2,4-Nonanedione]
Vmaxrel. [2, 8]: 0.56
KO2 ([2]; apparent): 112 ± 15 µM
O2/Substrate [2]: 1.0
Methylglyoxal/Acetate ([3]; substrate 4 mM): 1.4
Substrate % (remaining) ([3]; substrate 4 mM): 17%
Acetate % ([3]; substrate 4 mM): 35%
Methylglyoxal % ([3]; substrate 4 mM): 48%
Vmax clone [4]: 0.25
Vmax wild-type [5]: 0.30

CCCCC(=O)CC(C)=O [2,4-Octandion, 2,4-Octanedione]
Vmaxrel. [2, 8]: 0.58
KO2 ([2]; apparent): 85 ± 15 µM
O2/Substrate [2]: 1.0
Methylglyoxal/Acetate ([3]; substrate 4 mM): 0.5
Substrate % (remaining) ([3]; substrate 4 mM): 18%
Acetate % ([3]; substrate 4 mM): 55%
Methylglyoxal % ([3]; substrate 4 mM): 27%
Vmax clone [4]: 0.60
Vmax wild-type [5]: 0.50

CC(=O)C1CCCCC1=O (centres unmarked) [2-Acetocyclohexanone]
acceptance as substrate (in words) [2]: quite good reaction rated
Vmaxrel. [2, 8]: 0.58
KO2 ([2]; apparent): 21 ± 5 µM
O2/Substrate [2]: 0.9
Vmax clone [4]: 0.48
Vmax wild-type [5]: 0.56

CC(=O)C1CCCC1=O (centres unmarked) [2-Acetocyclopentanone]
acceptance as substrate (in words) [2]: quite good reaction rated
Vmaxrel. [2, 8]: 0.52
KO2 ([2]; apparent): 15 ± 5 µM
O2/Substrate [2]: 1.0
Acetate % ([3]; substrate 4 mM): 90%
Vmax clone [4]: 0.43
Vmax wild-type [5]: 0.31

CC(=O)C(C)(C)C(C)=O [3,3-Dimethylpentanedione]
Vmaxrel. [2]: 0.00

CC(=O)C(C)C(C)=O [3-Methylpentandion, 3-Methylpentanedione]
acceptance as substrate (in words) [2]: quite good reaction rated
Vmaxrel. [2, 8]: 0.25
KO2 ([2]; apparent): 40 ± 8 µM
O2/Substrate [2]: 1.0
Substrate % (remaining) ([3]; substrate 4 mM): 18%
Acetate % ([3]; substrate 4 mM): 82%
Vmax clone [4]: 0.85
Vmax wild-type [5]: 0.83

COC(C)=CC(C)=O [4-Methoxy-3-penten-2-one]
Vmaxrel. [2]: 0.00
acceptance as substrate (in words) [2]: not accepted

CC(=O)CC(=O)C(C)(C)C [5,5-Dimethylhexan-2,4-dion, 5,5-Dimethylhexane-2,4-dione]
acceptance as substrate (in words) [2]: cleaved at significantly lower rates
Vmaxrel. [2, 8]: 0.25
KO2 ([2]; apparent): 70 ± 15 µM
O2/Substrate [2]: 0.9
Methylglyoxal/Acetate ([3]; substrate 4 mM): 3.3
Substrate % (remaining) ([3]; substrate 4 mM): 9%
Acetate % ([3]; substrate 4 mM): 21%
Methylglyoxal % ([3]; substrate 4 mM): 70%
Vmax clone [4]: 0.08
Vmax wild-type [5]: 0.05

CC(=O)c1ccccc1O [(2-Hydroxyphenyl-)-ethan-1-one]
Vmaxrel. [2]: 0.00

[Cl][Cu][Cl] [CuCl2]
Relative activity [%] 2 min (reactivation) [6]: 0%
Relative activity [%] 10 min (reactivation) [6]: 0%

O=C(O)c1cc(SSc2ccc([N+](=O)[O-])c(C(=O)O)c2)ccc1[N+](=O)[O-] [DTNB, ‘5’-Dithio-bis-(2-dinitrobenzoic acid)]
Relative activity [%] 2 min [7, 9]: 88%
Relative activity [%] 10 min [7, 10]: 85%

CCOC(=O)OC(=O)OCC [Diethyl-pyrocarbonate]
Relative activity [%] 2 min [7, 9]: 18%
Relative activity [%] 10 min [7, 10]: 12%

CCN=C=NCCCN(C)C [EDAC, 1-Ethyl-3-(3-dimethylaminopropyl)-carbodimide]
Relative activity [%] 2 min [7, 9]: 100%
Relative activity [%] 10 min [7, 10]: 95%

O=C(O)CN(CCN(CC(=O)O)CC(=O)O)CC(=O)O [EDTA]
Relative activity [%] 2 min [7]: 85%
Relative activity [%] 10 min [7]: 36%

[Cl][Fe]([Cl])[Cl] [FeCl3]
Relative activity [%] 2 min (reactivation) [6]: 0%
Relative activity [%] 10 min (reactivation) [6]: 0%

O=S(=O)([O-])[O-].[Fe+2] [FeSO4]
Relative activity [%] 2 min (reactivation) [6]: 14%
Relative activity [%] 10 min (reactivation) [6]: 33%
restoration of enzyme-activity (in words) [6]: partially restores the enzyme-activity

OO [H2O2]
Relative activity [%] 2 min [7]: 0%
Relative activity [%] 10 min [7]: 0%
inactivation of the enzyme (in words) [7]: complete inactivation

O=C(O)CI [Iodo-acetic-acid]
Relative activity [%] 2 min ([7]; pH 7.5): 100%
Relative activity [%] 10 min ([7]; pH 7.5): 72%

O=S(=O)([O-])[O-].[Mn+2] [MnSO4]
Relative activity [%] 2 min (reactivation) [6]: 0%
Relative activity [%] 10 min (reactivation) [6]: 0%

[N-]=[N+]=[N-].[Na+] [NaN3]
Relative activity [%] 2 min ([7]; pH 7.5): 54%
Relative activity [%] 10 min ([7]; pH 7.5): 38%

[Cl][Ni][Cl] [NiCl2]
Relative activity [%] 2 min (reactivation) [6]: 0%
Relative activity [%] 10 min (reactivation) [6]: 0%

O=C1CCC(=O)O1 [Succinic anhydride]
Relative activity [%] 2 min [7, 9]: 62%
Relative activity [%] 10 min [7, 10]: 23%

O=S(=O)([O-])[O-].[Zn+2] [ZnSO4]
Relative activity [%] 2 min (reactivation) [6]: 0%
Relative activity [%] 10 min (reactivation) [6]: 0%

Oc1ccccc1O [catechol]
acceptance as substrate (in words) [2]: does not accept

Cc1cccc(O)c1O [methylcatechol]
acceptance as substrate (in words) [2]: does not accept

c1cnc2c(c1)ccc1cccnc12 [o-Phenantroline]
Relative activity [%] 2 min [7]: 38%
Relative activity [%] 10 min [7]: 10%

O=C(O)c1cc[c]([Hg][OH])cc1 [p-Hydroxymercurybenzoic acid]
Relative activity [%] 2 min ([7]; pH 7.5): 56%
Relative activity [%] 10 min ([7]; pH 7.5): 45%

CoCl2
Relative activity [%] 2 min (reactivation) [6]: 0%
Relative activity [%] 10 min (reactivation) [6]: 0%
